Bounds are passed on as bounds.

For this test, the target named is T1, SARM1 (50-724) (Homo sapiens, UniProt Q6SZW1).
T1 sequence (Q6SZW1 50-724): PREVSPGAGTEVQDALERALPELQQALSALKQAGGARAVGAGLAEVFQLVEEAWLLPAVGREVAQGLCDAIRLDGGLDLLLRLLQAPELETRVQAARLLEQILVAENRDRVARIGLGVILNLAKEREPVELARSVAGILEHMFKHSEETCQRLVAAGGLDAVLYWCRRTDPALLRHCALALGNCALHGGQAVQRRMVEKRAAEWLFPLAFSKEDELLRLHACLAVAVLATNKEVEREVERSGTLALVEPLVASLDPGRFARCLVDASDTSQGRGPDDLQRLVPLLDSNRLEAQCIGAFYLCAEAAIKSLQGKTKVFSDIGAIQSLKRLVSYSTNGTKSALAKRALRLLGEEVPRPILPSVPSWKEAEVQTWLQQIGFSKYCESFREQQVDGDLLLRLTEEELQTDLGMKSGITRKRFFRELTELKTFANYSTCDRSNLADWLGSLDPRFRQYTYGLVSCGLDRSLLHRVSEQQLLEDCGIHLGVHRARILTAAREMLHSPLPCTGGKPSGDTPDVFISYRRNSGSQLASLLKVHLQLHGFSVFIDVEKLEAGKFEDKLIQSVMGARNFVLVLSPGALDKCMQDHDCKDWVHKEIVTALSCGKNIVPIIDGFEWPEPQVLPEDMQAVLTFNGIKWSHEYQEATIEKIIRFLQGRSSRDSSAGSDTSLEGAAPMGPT
The experiment in a line: biochemical.
Method: An enzymatic assay was performed in a 384-well plate using Dulbecco's phosphate-buffered saline (PBS) as the reaction buffer. […] The reaction was initiated by adding a mixture of 200 μM nicotinamide mononucleotide (NMN) as activator and 100 μM NAD^+ as substrate. After 1 h of incubation at room temperature, the reaction was terminated with 10 times volume of 70% acetonitrile, then centrifuged at 3800 rpm for 10 min.
Usually IC50 stands for the concentration needed to halve the response being measured. Lower therefore signals greater potency in that assay. Regarding `CC(Nc1ccc2c(c1)N(CCO)C(=O)C2(C)C)c1nc(Cl)c(Cl)s1` (racemic) [Compound 277, 6-((1-(4,5-dichlorothiazol-2-yl)ethyl)amino)-1-(2-hydroxyethyl)-3,3-dimethylindolin-2-one], the IC50 is under 100 nM.
Then `CC(Nc1ccc2c(c1)C(=O)NC2(C)C)c1nc(Cl)c(Cl)s1` (racemic) [Compound 278, 6-[1-(4,5-dichlorothiazol-2-yl)ethylamino]-3,3-dimethyl-isoindolin-1-one], with under 100 nM; and `CC(Nc1ccc2c(c1)c(C(=O)NCCO)nn2C)c1c(Cl)ccc(F)c1Cl` (racemic) [Compound 282, 5-((1-(2,6-dichloro-3-fluorophenyl)ethyl)amino)-N-(2-hydroxyethyl)-1-methyl-1H-indazol-3-carboxamide], with under 100 nM; and `CC(=O)NC1CCCc2ccc(NS(=O)(=O)c3cccc(Cl)c3Cl)cc21` (racemic) [Compound 283, N-(7-((2,3-dichlorophenyl)sulfonamido)-1,2,3,4-tetrahydronaphthalen-1-yl)acetamide], with under 100 nM.
The compound `CC(Nc1ccc2ccn(CC(N)=O)c(=O)c2c1)c1nc(Cl)c(Cl)s1` (racemic) [Compound 290, 2-(7-((1-(4,5-dichlorothiazol-2-yl)ethyl)amino)-1-oxoisoquinolin-2(1H)-yl)acetamide] gave an IC50 of under 100 nM.
Compound `CC(Nc1cc(F)c2ncn(CCO)c(=O)c2c1)c1nc(Cl)c(Cl)s1` (racemic) [Compound 297, 6-((1-(4,5-dichlorothiazol-2-yl)ethyl)amino)-8-fluoro-3-(2-hydroxyethyl)quinazolin-4(3H)-one] showed an IC50 of under 100 nM.
Then `CC1(C)CC(C#N)c2cc(NS(=O)(=O)c3cccc(Cl)c3Cl)ccc21` (racemic) [Compound 298, 2,3-dichloro-N-(3-cyano-1,1-dimethyl-2,3-dihydro-1H-inden-5-yl)benzenesulfonamide], with under 100 nM.
Compound `Cc1nn(CC(N)=O)c(=O)c2cc(NC(C)c3c(Cl)ccc(F)c3Cl)ccc12` (racemic) [Compound 300, 2-(7-((1-(2,6-dichloro-3-fluorophenyl)ethyl)amino)-4-methyl-1-oxophthalazin-2(1H)-yl)acetamide] registered an IC50 of under 100 nM.
As for `Cc1nn(CCO)c2cc(NC(C)c3nc(Cl)c(Cl)s3)ccc12` (racemic) [Compound 301, 2-(6-((1-(4,5-dichlorothiazol-2-yl)ethyl)amino)-3-methyl-1H-indazol-1-yl)ethan-1-ol], the figure is under 100 nM.
As for `O=C1NC(CO)CCc2ccc(NS(=O)(=O)c3cccc(Cl)c3Cl)cc21` (racemic) [Compound 304A, 2,3-dichloro-N-(3-(hydroxymethyl)-1-oxo-2,3,4,5-tetrahydro-1H-benzo[c]azepin-8-yl)benzenesulfonamide], the figure is under 100 nM; as for `CC(Nc1ccc2ccn(CCO)c(=O)c2c1)c1nc(Cl)c(Cl)s1` (racemic) [Compound 305, 7-((1-(4,5-dichlorothiazol-2-yl)ethyl)amino)-2-(2-hydroxyethyl)isoquinolin-1(2H)-one], under 100 nM.
`Cc1c2ccc(NC(C)c3nc(Cl)c(Cl)s3)cc2nn1CCO` (racemic) [Compound 307, 2-(6-((1-(4,5-dichlorothiazol-2-yl)ethyl)amino)-3-methyl-2H-indazol-2-yl)ethan-1-ol] yielded an IC50 of under 100 nM.
As for `CC(Nc1ccc2cc[nH]c(=O)c2c1)c1nc(Cl)n(C)c1Cl` (racemic) [Compound 308, 7-((1-(2,5-dichloro-1-methyl-1H-imidazol-4-yl)ethyl)amino)isoquinolin-1(2H)-one], the figure is 100 to 500 nM; as for `CC(Nc1ccc2c(c1)c(C(N)=O)nn2C)c1nc(Cl)c(Cl)s1` (racemic) [Compound 310, 5-((1-(4,5-dichlorothiazol-2-yl)ethyl)amino)-1-methyl-1H-indazole-3-carboxamide], under 100 nM; as for `Cc1n[nH]c(=O)c2nc(NC(C)c3nn(C)c(Cl)c3Cl)ccc12` (racemic) [Compound 311, 2-((1-(4,5-dichloro-1-methyl-1H-pyrazol-3-yl)ethyl)amino)-5-methylpyrido[2,3-d]pyridazin-8(7H)-one], under 100 nM.
`Cc1c2ccc(NC(C)c3nc(Cl)c(Cl)s3)cc2nn1CC(N)=O` (racemic) [Compound 312A, 2-(6-((1-(4,5-dichlorothiazol-2-yl)ethyl)amino)-3-methyl-2H-indazol-2-yl)acetamide]: the IC50 is under 100 nM.
`Cc1n[nH]c(=O)c2nc(NC(C)c3c(Cl)ccc(F)c3Cl)ccc12` (racemic) [Compound 314, 2-((1-(2,6-dichloro-3-fluorophenyl)ethyl)amino)-5-methylpyrido[2,3-d]pyridazin-8(7H)-one] yielded an IC50 of under 100 nM.
`CC(Nc1ccc2ccn(CC(N)=O)c(=O)c2c1)c1nn(C)c(C2CC2)c1Cl` (racemic) [Compound 315, 2-(7-((1-(4-chloro-5-cyclopropyl-1-methyl-1H-pyrazol-3-yl)ethyl)amino)-1-oxoisoquinolin-2(1H)-yl)acetamide] gave an IC50 of under 100 nM.
For `Cc1n[nH]c(=O)c2cc(NC(C)c3nn(C)c(Cl)c3Cl)cc(F)c12` (racemic) [Compound 316, 7-((1-(4,5-dichloro-1-methyl-1H-pyrazol-3-yl)ethyl)amino)-5-fluoro-4-methylphthalazin-1(2H)-one], the IC50 was under 100 nM.
As to `CC(Nc1ccc2c(c1)N(C(=O)CC(N)=O)CC2(C)C)c1sc(Cl)nc1Cl` (racemic) [Compound 317, 3-(6-((1-(2,4-dichlorothiazol-5-yl)ethyl)amino)-3,3-dimethylindolin-1-yl)-3-oxopropanamide], the IC50 was under 100 nM.
Compound `CC(Nc1cc(F)c2c(c1)C(=O)NC2(C)C)c1nc(Cl)c(Cl)s1` (racemic) [Compound 318, 6-((1-(4,5-dichlorothiazol-2-yl)ethyl)amino)-4-fluoro-3,3-dimethylisoindolin-1-one] yielded a half-maximal inhibitory concentration (IC50) of under 100 nM.
In turn, `CC(Nc1ccc2cc[nH]c(=O)c2c1)c1nn(C2CC2)c(Cl)c1Cl` (racemic) [Compound 321, 7-((1-(4,5-dichloro-1-cyclopropyl-1H-pyrazol-3-yl)ethyl)amino)isoquinolin-1(2H)-one] came in with an IC50 of under 100 nM.
As for `Cc1cn(CC(N)=O)c(=O)c2nc(NC(C)c3nn(C)c(Cl)c3Cl)ccc12` (racemic) [Compound 324, 2-(2-((1-(4,5-dichloro-1-methyl-1H-pyrazol-3-yl)ethyl)amino)-5-methyl-8-oxo-1,7-naphthyridin-7(8H)-yl)acetamide], the figure is under 100 nM.
Then `CC(Nc1ccc2cc[nH]c(=O)c2c1)c1nn(C)c(C(F)F)c1Cl` (racemic) [Compound 325, 7-((1-(4-chloro-5-(difluoromethyl)-1-methyl-1H-pyazol-3-yl)ethyl)amino)isoquinolin-1(2H)-one], with under 100 nM; and `Cc1c2ccc(NC(C)c3nc(Cl)c(Cl)s3)cc2nn1C1CCOCC1` (racemic) [Compound 327, N-(1-(4,5-dichlorothiazol-2-yl)ethyl)-3-methyl-2-(tetrahydro-2H-pyran-4-yl)-2H-indazol-6-amine], with under 100 nM; and `CC(Nc1cc(F)c2c(c1)C(=O)N(CC(N)=O)C2(C)C)c1nc(Cl)c(Cl)s1` (racemic) [Compound 328, 2-(5-((1-(4,5-dichlorothiazol-2-yl)ethyl)amino)-7-fluoro-1,1-dimethyl-3-oxoisoindolin-2-yl)acetamide], with under 100 nM.
`CC1N(C(=O)CC(N)=O)c2cc(NS(=O)(=O)c3cccc(Cl)c3Cl)ccc2C1(C)C` (racemic) [Compound 329, 3-(6-((2,3-dichlorophenyl)sulfonamido)-2,3,3-trimethylindolin-1-yl)-3-oxopropanamide]: the IC50 is under 100 nM.
Consider `Cc1nn(CC(N)=O)c(=O)c2nc(NC(C)c3nn(C)c(Cl)c3Cl)ccc12` (racemic) [Compound 330, 2-(2-((1-(4,5-dichloro-1-methyl-1H-pyrazol-3-yl)ethyl)amino)-5-methyl-8-oxopyrido[2,3-d]pyridazin-7(8H)-yl)acetamide], for which the IC50 is under 100 nM.
As for `Cc1nn(C(=O)c2ccncc2)c2cc(NC(C)c3nc(Cl)c(Cl)s3)ccc12` (racemic) [Compound 331, (6-((1-(4,5-dichlorothiazol-2-yl)ethyl)amino)-3-methyl-1H-indazol-1-yl)(pyridin-4-yl)methanone], the figure is under 100 nM; as for `Cc1nn(CC(N)=O)c2cc(NC(C)c3nc(Cl)c(Cl)s3)cc(F)c12` (racemic) [Compound 337, 2-(6-((1-(4,5-dichlorothiazol-2-yl)ethyl)amino)-4-fluoro-3-methyl-1H-indazol-1-yl)acetamide], under 100 nM; as for `CC(Nc1cc(F)c2nc[nH]c(=O)c2c1)c1nsc(Cl)c1Cl` (racemic) [Compound 338, 6-((1-(4,5-dichloroisothiazol-3-yl)ethyl)amino)-8-fluoroquinazolin-4(3H)-one], under 100 nM.
Then `Cc1c2ccc(NC(C)c3snc(Cl)c3Cl)cc2nn1CC(N)=O` (racemic) [Compound 341, 2-(6-((1-(3,4-dichloroisothiazol-5-yl)ethyl)amino)-3-methyl-2H-indazol-2-yl)acetamide], with under 100 nM.

For the origin of these results see US20250320184A1 (SIRONAX LTD., priority 2022, published 2025).
